In ChEMBL document CHEMBL4376867 (J Med Chem, 2020):
≈ marks a conversion by molar mass, not a printed value.

Columns and labels:
Cytochrome P450 1A2 = biological target: T1, Cytochrome P450 1A2 (Homo sapiens, UniProt P05177); experiment: Inhibition of CYP1A2 (unknown origin); assay type: ADME
T1 sequence (P05177 whole entry): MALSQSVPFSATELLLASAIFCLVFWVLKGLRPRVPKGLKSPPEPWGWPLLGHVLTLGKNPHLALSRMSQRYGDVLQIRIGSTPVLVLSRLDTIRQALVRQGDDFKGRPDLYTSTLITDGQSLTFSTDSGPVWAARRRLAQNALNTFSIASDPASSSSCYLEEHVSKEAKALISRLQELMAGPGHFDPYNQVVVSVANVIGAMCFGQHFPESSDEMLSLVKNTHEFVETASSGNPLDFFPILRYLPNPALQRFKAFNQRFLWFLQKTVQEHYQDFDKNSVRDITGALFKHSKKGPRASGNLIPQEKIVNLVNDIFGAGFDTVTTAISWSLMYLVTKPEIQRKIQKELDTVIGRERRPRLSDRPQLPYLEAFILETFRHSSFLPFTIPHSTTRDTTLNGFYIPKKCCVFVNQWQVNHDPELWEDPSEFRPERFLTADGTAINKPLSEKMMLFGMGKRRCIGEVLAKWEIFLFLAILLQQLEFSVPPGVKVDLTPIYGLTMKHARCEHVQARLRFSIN

Cytochrome P450 2C8 = biological target: T2, Cytochrome P450 2C8 (Homo sapiens, UniProt P10632); experiment: Inhibition of CYP2C8 (unknown origin); assay type: ADME
T2 sequence (P10632 whole entry): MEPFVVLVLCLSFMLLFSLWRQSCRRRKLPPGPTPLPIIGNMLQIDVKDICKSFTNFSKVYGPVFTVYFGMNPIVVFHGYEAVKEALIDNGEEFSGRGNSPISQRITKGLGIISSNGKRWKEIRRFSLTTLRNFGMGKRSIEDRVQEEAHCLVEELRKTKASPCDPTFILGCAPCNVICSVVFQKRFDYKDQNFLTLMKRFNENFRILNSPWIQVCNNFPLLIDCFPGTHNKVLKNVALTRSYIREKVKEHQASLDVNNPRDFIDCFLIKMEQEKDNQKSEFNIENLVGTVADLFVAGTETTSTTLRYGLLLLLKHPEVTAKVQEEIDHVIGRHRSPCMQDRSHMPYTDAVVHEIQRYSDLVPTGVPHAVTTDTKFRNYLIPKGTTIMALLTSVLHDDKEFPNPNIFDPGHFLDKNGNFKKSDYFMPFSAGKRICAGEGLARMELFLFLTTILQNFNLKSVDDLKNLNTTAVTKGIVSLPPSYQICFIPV

Cytochrome P450 2C9 = Cytochrome P450 2C9 (Homo sapiens, UniProt P11712); experiment: Inhibition of CYP2C9 (unknown origin); assay type: ADME
Cytochrome P450 2D6 = Cytochrome P450 2D6 (Homo sapiens, UniProt P10635); experiment: Inhibition of CYP2D6 (unknown origin); assay type: ADME
Cytochrome P450 3A4 [1] = biological target: T3, Cytochrome P450 3A4 (Homo sapiens, UniProt P08684); experiment: Inhibition of CYP3A4 (unknown origin); assay type: ADME
Cytochrome P450 3A4 [2] = biological target: T3, Cytochrome P450 3A4; experiment: Inhibition of CYP3A4 (unknown origin) measured under preincubated conditions; assay type: ADME
[3] = biological target: Voltage-gated inwardly rectifying potassium channel KCNH2 (Homo sapiens, UniProt Q12809); experiment: Inhibition of human ERG
[4] = Distribution coefficient, log D of compound at pH 7.5; assay type: physicochemical; details: octanol/water
[5] = Clearance in human liver microsomes at 1 uM measured upto 60 mins in presence of NADP by LC-MS/MS analysis; assay type: ADME, Microsome; details: 1 h
[6] = Hepatic extraction ratio in human liver microsomes at 1 uM measured upto 60 mins in presence of NADP by LC-MS/MS analysis
[7] = Clearance in rat liver microsomes at 1 uM measured upto 60 mins by LC-MS/MS analysis; assay type: ADME, Microsome; details: 1 h
[8] = Hepatic extraction ratio in rat liver microsomes at 1 uM measured upto 60 mins by LC-MS/MS analysis
[9] = Clearance in Han Wistar rat hepatocytes at 1 uM measured upto 90 mins by LC-MS/MS analysis; assay type: ADME, cell-based, Hepatocyte
[10] = Hepatic extraction ratio in Han Wistar rat hepatocytes at 1 uM measured upto 90 mins by LC-MS/MS analysis
[11] = Clearance in Wistar rat at 0.30 mg/kg, iv via bolus measured upto 24 hrs by LC-MS/MS analysis; assay type: ADME, organism-based; details: in vivo, 0.3 mg/kg
[12] = Volume of distribution at steady state in Wistar rat at 0.30 mg/kg, iv via bolus or 0.30 mg/kg, po measured upto 24 hrs by LC-MS/MS analysis; assay type: ADME, organism-based; details: in vivo, 0.3 mg/kg, read-out: Vdss
[13] = Terminal half life in Wistar rat at 0.30 mg/kg, iv via bolus or 0.30 mg/kg, po measured upto 24 hrs by LC-MS/MS analysis; assay type: ADME, organism-based; details: in vivo, 0.3 mg/kg, read-out: beta t1/2 (converted)
[14] = Oral bioavailability in Wistar rat at 0.30 mg/kg measured upto 24 hrs by LC-MS/MS analysis; assay type: ADME, organism-based; details: in vivo, 0.3 mg/kg
[15] = Hepatic extraction in Wistar rat at 0.30 mg/kg, iv via bolus or 0.30 mg/kg, po measured upto 24 hrs by LC-MS/MS analysis; details: in vivo, 0.3 mg/kg
SK-MEL-2 [16] = experiment: Antitumor activity against human SK-MEL-2 cells harboring NRAS/TP53 mutation xenografted in NMRI nude mouse assessed as relative tumor area by measuring T/C ratio at 200 mg/kg, po bid measured after 35 days compound treatment; assay type: functional
SK-MEL-2 [17] = experiment: Antitumor activity against human SK-MEL-2 cells harboring NRAS/TP53 mutation xenografted in NMRI nude mouse assessed as tumor weight by measuring T/C ratio at 200 mg/kg, po bid measured after 35 days compound treatment; assay type: functional
[18] = Toxicity in NMRI nude mouse xenografted with human SK-MEL-2 cells harboring NRAS/TP53 mutation assessed as body weight loss at 200 mg/kg, po bid for 35 days relative to control; assay type: organism-based; details: in vivo, 840 h
[19] = Solubility of compound in water at pH 6.5; assay type: physicochemical
Mus musculus [20] = experiment: Time required for unbound plasma concentration to reach IC50 for recombinant full length human N-terminal His-tagged TBK1 in NMRI mouse at 100 mg/kg, po; assay type: ADME, organism-based; details: in vivo
Mus musculus [21] = experiment: Time required for unbound plasma concentration to reach IC50 for IKKepsilon/TBK1 in human MDB-MB-231 cells transduced with lentiviral vector expressing human IRF3 in NMRI mouse at 100 mg/kg, po; assay type: ADME, organism-based; details: in vivo

T3 sequence (P08684 whole entry): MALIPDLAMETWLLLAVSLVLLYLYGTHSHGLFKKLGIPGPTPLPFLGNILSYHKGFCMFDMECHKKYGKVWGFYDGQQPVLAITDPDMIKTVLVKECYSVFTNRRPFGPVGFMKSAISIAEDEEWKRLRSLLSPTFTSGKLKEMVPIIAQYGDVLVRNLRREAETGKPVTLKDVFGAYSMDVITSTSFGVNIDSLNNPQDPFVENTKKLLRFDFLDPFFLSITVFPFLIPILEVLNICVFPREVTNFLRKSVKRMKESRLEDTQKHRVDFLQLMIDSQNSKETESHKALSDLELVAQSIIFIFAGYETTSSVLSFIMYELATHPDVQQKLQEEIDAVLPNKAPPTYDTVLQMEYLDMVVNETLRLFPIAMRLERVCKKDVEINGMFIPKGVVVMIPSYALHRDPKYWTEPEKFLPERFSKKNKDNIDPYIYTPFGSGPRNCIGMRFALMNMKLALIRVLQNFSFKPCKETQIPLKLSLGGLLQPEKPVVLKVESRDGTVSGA
Sequence of Cytochrome P450 2C9 (P11712 whole entry): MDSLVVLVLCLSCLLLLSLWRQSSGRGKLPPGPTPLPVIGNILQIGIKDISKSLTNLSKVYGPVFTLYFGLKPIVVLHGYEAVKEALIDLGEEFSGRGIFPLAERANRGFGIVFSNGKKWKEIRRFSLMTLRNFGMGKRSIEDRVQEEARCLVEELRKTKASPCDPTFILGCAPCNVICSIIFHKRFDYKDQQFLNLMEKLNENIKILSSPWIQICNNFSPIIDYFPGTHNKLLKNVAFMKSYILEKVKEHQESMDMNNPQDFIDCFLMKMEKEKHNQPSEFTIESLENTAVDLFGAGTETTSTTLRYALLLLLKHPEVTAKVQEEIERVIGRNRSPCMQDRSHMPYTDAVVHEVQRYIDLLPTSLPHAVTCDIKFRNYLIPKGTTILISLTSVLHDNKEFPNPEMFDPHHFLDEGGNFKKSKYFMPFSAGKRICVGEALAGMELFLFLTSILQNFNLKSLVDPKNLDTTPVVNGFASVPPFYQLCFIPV
Sequence of Voltage-gated inwardly rectifying potassium channel KCNH2 (Q12809 whole entry): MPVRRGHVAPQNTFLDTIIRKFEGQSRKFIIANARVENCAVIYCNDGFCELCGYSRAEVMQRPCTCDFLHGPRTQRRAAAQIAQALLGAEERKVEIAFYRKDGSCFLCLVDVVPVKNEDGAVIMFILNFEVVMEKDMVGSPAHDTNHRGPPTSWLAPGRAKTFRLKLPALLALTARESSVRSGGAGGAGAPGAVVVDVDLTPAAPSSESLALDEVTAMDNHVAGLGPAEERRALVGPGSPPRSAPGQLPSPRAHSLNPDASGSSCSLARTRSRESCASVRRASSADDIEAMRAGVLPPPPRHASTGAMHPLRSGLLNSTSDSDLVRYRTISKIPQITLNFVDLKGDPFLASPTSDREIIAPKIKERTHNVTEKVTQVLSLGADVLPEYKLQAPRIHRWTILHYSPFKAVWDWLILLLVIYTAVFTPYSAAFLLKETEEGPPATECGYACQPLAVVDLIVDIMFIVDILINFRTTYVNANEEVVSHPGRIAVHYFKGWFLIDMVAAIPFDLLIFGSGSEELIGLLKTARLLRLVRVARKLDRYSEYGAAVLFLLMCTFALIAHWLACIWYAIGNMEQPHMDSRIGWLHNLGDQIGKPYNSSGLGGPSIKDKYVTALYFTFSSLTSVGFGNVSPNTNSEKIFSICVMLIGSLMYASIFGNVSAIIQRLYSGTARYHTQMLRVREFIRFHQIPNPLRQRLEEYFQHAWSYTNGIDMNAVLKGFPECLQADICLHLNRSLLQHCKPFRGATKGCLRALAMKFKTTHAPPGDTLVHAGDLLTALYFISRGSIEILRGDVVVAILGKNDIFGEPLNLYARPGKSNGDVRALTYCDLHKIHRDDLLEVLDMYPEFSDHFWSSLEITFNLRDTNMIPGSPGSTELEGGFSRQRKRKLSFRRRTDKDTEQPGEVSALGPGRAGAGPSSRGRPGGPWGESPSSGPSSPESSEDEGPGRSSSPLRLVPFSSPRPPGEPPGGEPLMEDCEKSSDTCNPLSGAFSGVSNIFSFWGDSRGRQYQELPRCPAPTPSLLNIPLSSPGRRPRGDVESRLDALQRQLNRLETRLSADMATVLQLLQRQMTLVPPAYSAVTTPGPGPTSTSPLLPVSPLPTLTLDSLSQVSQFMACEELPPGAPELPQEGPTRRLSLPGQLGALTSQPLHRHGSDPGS
Sequence of Cytochrome P450 2D6 (P10635 whole entry): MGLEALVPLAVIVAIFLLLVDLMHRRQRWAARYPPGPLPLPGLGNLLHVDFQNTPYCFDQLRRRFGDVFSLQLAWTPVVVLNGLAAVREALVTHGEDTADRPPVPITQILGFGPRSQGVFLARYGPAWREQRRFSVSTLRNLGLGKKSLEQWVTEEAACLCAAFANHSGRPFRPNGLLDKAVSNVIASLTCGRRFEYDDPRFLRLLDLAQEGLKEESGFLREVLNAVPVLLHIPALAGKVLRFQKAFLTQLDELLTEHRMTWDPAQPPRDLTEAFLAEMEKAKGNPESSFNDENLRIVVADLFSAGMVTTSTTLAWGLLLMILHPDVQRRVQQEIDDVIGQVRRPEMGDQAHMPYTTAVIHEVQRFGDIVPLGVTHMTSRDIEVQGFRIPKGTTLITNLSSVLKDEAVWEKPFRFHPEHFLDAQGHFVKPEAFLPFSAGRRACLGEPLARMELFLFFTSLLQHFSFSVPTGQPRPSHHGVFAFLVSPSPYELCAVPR

SMILES: C[C@H](c1ccnc(Nc2nc3ccc(-c4cc(N(C)C)ncn4)cc3[nH]2)c1)N1CCN(C(=O)CC(F)(F)F)CC1 [BAY-985]
- IC50 (Cytochrome P450 1A2): > 20 µM
- IC50 (Cytochrome P450 2C8): 0.86 µM
- IC50 (Cytochrome P450 2C9): 17 µM
- IC50 (Cytochrome P450 2D6): > 20 µM
- IC50 (Cytochrome P450 3A4 [1]): > 20 µM
- IC50 (Cytochrome P450 3A4 [2]): > 20 µM
- IC50 [3]: 4.7 µM
- logD [4]: 2.5
- CLH [5]: 8.3 mL/min/kg
- hepatic extraction ratio at 1 h, 1 µM [6]: 0.38
- CLH [7]: 28.3 mL/min/kg
- hepatic extraction ratio at 1 h, 1 µM [8]: 0.4
- CLH [9]: 28.3 mL/min/kg
- hepatic extraction ratio at […], 1 µM [10]: 0.4
- clearance [11]: 66.7 mL/min/kg
- Vd [12]: 2.9 L/kg
- half-life [13]: 47.4 min
- bioavailability [14]: 11%
- hepatic extraction ratio at 24 h [15]: 0.95
- T/C (SK-MEL-2 [16]): 0.8
- T/C (SK-MEL-2 [17]): 0.6
- Activity [18]: < 10%
- solubility [19]: 0.8 µg/mL (≈ 1.45 µM)
- Time (Mus musculus [20]): 10 h
- Time (Mus musculus [21]): 11 h
